Data from patent US20110118274A1, “PROTEASOME INHIBITORS AND THEIR USE IN TREATING PATHOGEN INFECTION AND CANCER” (CORNELL RESEARCH FOUNDATION, INC., priority 2007, published 2011).

System: Mtb PrcAB-OG
Test: biochemical
Type: biochemical, Mycobacterium tuberculosis

Q: How did the Selectivity turn out when `CSc1sc(C)cc1-c1nsc(=O)o1` [GL5] was run?
A: 63.8
